Test [1] relates to synthesis of LTB4 by rat glycogen-elicited polymorphonuclear leukocytes (PMN). As to the kind of experiment: inhibition of LTB4 synthesis by rat glycogen-elicited PMN (Example 72). In kind it is cell-based, rat (female Wistar). Particulars: Leukocyte; for inhibition at 10000 µM: at 10 mM, negative number denotes potentiation; for inhibition at 500 µM: at 0.5 mM. The source says: This is especially true with respect to 5,12-diHETE, which is also denoted as LTB4 lsee Ford-Hitchinson, J. Roy. Soc. Med., 74, 831 (1981)]. Compounds which inhibit the PLA2 -mediated release of arachidonic acid thereby effectively prevent the oxidation of arachidonic acid to the various leukotriene products via the lipoxygenase cascade. Accordingly, the specificity of action of PLA2 inhibitors can be determined by the activity of test compounds in this assay, which measures the ability of compounds to inhibit the synthesis of LTB4 by rat glycogen-elicited polymorphonuclear leukocytes (PMN) in the presence of exogenous substrate.
The assay is carded out as follows:
(§1) Rat polymorphonuclear leukocytes (PMNs) are obtained from female Wistar rats (150-200 g) which receive an injection of 6% glycogen (10 ml i.p.). Rats are sacrificed 18-24 hours post injection by CO2 asphyxiation and the elicited cells are harvested by peritoneal lavage using physiological saline (0.9% NaC1). The exudate is centrifuged at 400 ×g for 10 minutes. The supernatant fluid is discarded and the cell pellet is resuspended to a concentration of 2.0×10^7 cells/mL in HBSS containing Ca^++ and Mg^++ and 10 mM L-cysteine.
(§2) To 1 mL aliquots of cell suspension, test drugs or vehicle are added, then preincubated at 37° C. for 10 minutes. A23187 (1 mM), [^3 H]-AA (3.0 mCi/mL) and unlabeled AA (1 mM) are then added and the samples are further incubated for 10 minutes. The reaction is terminated by centrifugation and pelleting cells. Supernatants are then analyzed by HPLC analysis on a 15 cm×4.6 mm ID supelcosil LC-18 (Supelco)(3M) column, using a two solvent system at a flow rate of 1.4 mL total flow as follows:
Gradient: (system is equilibrated with Solvent A)
Percent solvent changes are accomplished in a linear fashion.
Injections: […] of each supernatant is injected directly onto column and ^3 H arachidonic acid metabolites are monitored using an on-line radioactivity detector (Ramona, IN/U S, Fairfield, NJ).
Standards: 10^4 -2.0×10^4 dpm of eicosanoids of interest are injected in […] EtOH cocktail.
Co-chromatography with standard [^3 H] leukotriene B4 (LTB4) in medium of stimulated PMN exposed to drug is compared to that found in medium of stimulated cells exposed to no drug, generating percent inhibition.
Results are expressed as percent inhibition at a given compound dose or as an IC50 value.

The subject of test [2] is cyclooxygenase (PGE2 synthesis) in rat polymorphonuclear leukocytes (PMN). As to the kind of experiment: inhibition of PGE2 synthesis (cyclooxygenase) by rat glycogen-elicited PMN (Example 73). In kind it is cell-based, rat (female Wistar). Particulars: Leukocyte; for inhibition at 10000 µM: at 10 mM. The procedure: as §1, §2
In this assay, the procedure of Example 72 is carried out as described. However, in order to determine cyclooxygenase activity, the samples are cochromatographed with authentic reference [^3 H]-PGE2.
The results be calculated as in Example 72 and presented below: […]

The target in test [3] is T1, human synovial fluid PLA2 (Homo sapiens, UniProt P14555).
T1 sequence (P14555 21-144): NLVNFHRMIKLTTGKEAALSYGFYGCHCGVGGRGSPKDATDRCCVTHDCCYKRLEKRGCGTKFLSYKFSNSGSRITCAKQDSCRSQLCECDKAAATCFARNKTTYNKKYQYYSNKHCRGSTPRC
As to the kind of experiment: in vitro isolated phospholipase A2 assay, human synovial fluid PLA2 (Example 74). In kind it is biochemical. Further details: inhibition / % Inhibition, HSF (human synovial fluid): dose or concentration left out as unconfirmed. Particulars: for IC50: Table III, read-out: IC50 HSF (human synovial fluid); for inhibition: read-out: % Inhibition, HSF (human synovial fluid). The procedure:
(§3) The compounds of the invention are tested in an in vitro isolated phospholipase A2 assay to determine the ability of the test compounds to inhibit the release of arachidonic acid from an arachidonic acid-containing substrate by the action of phospholipase A2 enzyme from human and non-human sources.
(§4) This assay is carried out as follows:
(§5) Into a 15 mL polypropylene tube are added the following:
(§6) ^6 Two human PLA2 enzymes are used:
b) Purified human synovial fluid.
(§7) Incubate the 100mL reaction mixture for 10 minutes at 37° C. in a shaking water bath. The reaction is terminated by the addition of 2 mL tetrahydrofuran, followed by vortexlag. NH2 columns (100 mg/mL--Analytichem International) are conditioned with 0.5 mL tetrahydrofuran followed by 0.5 mL tetrahydrofuran/water (2 mL:0.1 mL, v/v).
(§8) The sample is loaded onto the columns and slowly drawn through them. The hydrolyzed arachidonic acid retained in the columns is eluted therefrom with 1 mL tetrahydrofuran/glacial acetic acid (2%). The arachidonic acid is transferred to scintillation vials and quantitated by b-counting analysis. A "total counts" sample is prepared by pipetting […] ^3 H-arachidonate E. coli directly into a scintillation vial to which is added 1 mL tetrahydrofuran. 10 mL aquasol (scintillation cocktail) is added to all samples. [formula]

For test [4], the system named is 5-lipoxygenase in human whole blood. The test is described as follows: inhibition of 5-lipoxygenase in human whole blood (Example 79). In kind it is cell-based. Particulars: 25 μM. The procedure: The assay of this Example measures the ability of the compounds tested to inhibit 5-lipoxygenase in human whole blood.
as §4
Blood is obtained in 50-100 ml quantities from male donors. White blood cell counts and differentials are made. Two ml of blood are placed in a 15 ml polypropylene test tube. Compounds are solubilized in dimethylsulfoxide and diluted 1:10 in 10% bovine serum albumin in phosphate buffered saline, pH 7.4 resulting in a final dimethylsulfoxide concentration of 0.1% in the blood. Then, compounds are added to the blood in a shaking water bath at 37° C. for 10 minutes prior to the addition of […] calcium ionophore (A23187; Sigma). After ionophore administration, whole blood samples are mixed and incubated for 20 minutes at 37° C. in a shaking water bath. Incubation is terminated by placing samples in an ice bath and immediately adding ethylene glycol-bis-(b-aminoethyl ether)-N,N,N',N'-tetraacetic acid (10 mM). Samples are mixed and centrifuged at 1200 × g for 15 minutes at 4° C. Preparation of samples for evaluation by RIA or ELISA is carried out by the following protocol. Plasma is removed from sample tubes, placed in 15 ml polypropylene test tubes containing 8 ml methanol, and then vortexed to precipitate protein. Samples are stored at -70° C. overnight. The next day, samples are centrifuged at 200 × g for 15 minutes at 4° C. to pellet the precipitate. Samples are dried in a Savant speed vac concentrator, reconstituted to original volume with ice cold RIA or ELISA buffer, and stored at -70° C. until assayed. The assay for eicosanoids (LTB4, T×B2, and PGE2) is performed as described by the manufacturer of the [^3 H]-RIA kit or ELISA kit (LTB4 -Amersham, TxB2 and PGE2 - Caymen Chemical).
The total eicosanoid level in 2 ml of blood is calculated and reported as ng/10^6 neutrophils. […] Drug effects are expressed as percent change from control values.
Compounds tested in vitro are solubilized in dimethylsulfoxide and diluted 1:10 in 10% bovine serum albumin in phosphate buffer saline resulting in a final dimethylsulfoxide concentration of 0.1% i n the blood.

The target in another test is T2, human platelet PLA2 (Homo sapiens, UniProt P14555).
T2 construct: Semi-purified human platelet acid extract PLA2; from tissue; host or cells: human platelets (semi-purified acid extract)
T2 sequence (P14555 21-144): T1 sequence (P14555 21-144)
The test is described as follows: in vitro isolated phospholipase A2 assay, human platelet PLA2 (Example 74). In kind it is biochemical. As to conditions: read-out: % Inhibition, HP (human platelet). More on the design: dose or concentration left out as unconfirmed. The procedure:
as §3, §4, §5, §6
a) Semi-purified human platelet acid extract PLA2 (in 10 mM
sodium acetate buffer, pH 4.5). Remove protein precipitate by
centrifugation at about 2200 rpm for 10 minutes.
as §7, §8

Setting [5] is: * (negative) denotes a potentiation, read-out: % Inhibition (PGE2 synthesis).
Setting [6] is: read-out: % Inhibition (PGE2 synthesis), symbol only.

Counter-ions that a name gives are not always drawn. Like-named read-outs stand apart in the source and are kept apart here.

In general, inhibition refers to the relative decrease from the control value, in per cent. With `CCc1cc(OCc2ccc3ccccc3n2)cc2c3c([nH]c12)C(CC)(CC(=O)O)OCC3` (centres unmarked) [Example 8, 1,8-Diethyl-1,3,4,9-tetrahydro-6-(2-quinolinylmethoxy)pyrano[3.4-b]indole-1-acetic acid], the inhibition at 10000 µM in test [1] is 91%; in test [2] (setting [5]), 47%.

Usually IC50 stands for the concentration that gives 50% inhibition. With `Cc1c(CC(=O)O)c2cc(OCc3ccc4ccccc4n3)ccc2n1Cc1ccc(Cl)cc1` [Example 16, 1-[(4-Chlorophenyl)methyl]-2-methyl-5-(2-quinolinylmethoxy)-1H-indole-3-acetic acid hydrochloride quarter hydrate], in test [1], the inhibition at 10000 µM was 96%. Besides, in test [2] (setting [6]), the inhibition at 10000 µM was less than 0%. Moreover, in test [3], the IC50 worked out at 4.1 µM and the inhibition turned out to be 46%. Further, the “% Inhibition of LTB4” value in test [4] is given as 18%.

`COC(=O)Cc1c(C)n(Cc2ccc(Cl)cc2)c2ccc(OCc3ccc4ccccc4n3)cc12` [Example 16C, 1-[(4-Chlorophenyl)methyl]-2-methyl-5-(2-quinolinylmethoxy)-1H-indole-3-acetic acid methyl ester]: in test [1], the inhibition at 500 µM came out at 88%. Also, the inhibition at 10000 µM in test [2] (setting [6]) is less than 0%.

Take `Cc1c(CC(=O)O)c2cc(OCc3ccc4ccccc4n3)ccc2n1C(=O)c1ccc(Cl)cc1` [Example 17, 1-(4-Chlorobenzoyl)-2-methyl-5-(2-quinolinylmethoxy)-1H-indole-3-acetic acid three quarters hydrate]: the inhibition at 500 µM in test [1] came out at 46%. Further, the inhibition at 500 µM in test [2] (at 0.5 mM, * (negative) denotes a potentiation) amounted to 60%. In test [3], the IC50 worked out at 14.9 µM and the inhibition was 58%.

Regarding `COC(=O)Cc1c(C)n(C(=O)c2ccc(Cl)cc2)c2ccc(OCc3ccc4ccccc4n3)cc12` [Example 17A, 1-(4-Chlorobenzoyl)-2-methyl-5-(2-quinolinylmethoxy)-1H-indole-3-acetic acid methyl esterone tenth hydrate], the results for the inhibition at 10000 µM in test [1] and in test [2] (setting [5]) were 96% and 50%, respectively.

In the case of `CC(C(=O)O)c1ccc2c3cc(OCc4ccc5ccccc5n4)ccc3n(Cc3ccc4ccccc4n3)c2c1` (centres unmarked) [Example 21, a-Methyl-6-(2-quinolinylmethoxy)-9-(2-quinolinylmethyl)-9H-carbazole-2-acetic acid], the values for the inhibition at 10000 µM in test [1] and in test [2] (setting [5]) were 92% and -94%, respectively.

Consider `Cc1c(CC(=O)O)c2cc(OCc3ccc4ccccc4n3)ccc2n1Cc1ccc(F)cc1` [Example 24, 1-[(4-Fluorophenyl)methyl]-2-methyl-5-(2-quinolinylmethoxy)-1H-indole-3-acetic acid hemihydrate], for which the inhibition at 10000 µM was 97% in test [1] and -126% in test [2] (setting [5]). Further, the inhibition in test [3] is 56%.

As for `Cc1c(CC(=O)O)c2cc(OCc3ccc4ccccc4n3)ccc2n1Cc1ccc(Br)cc1` [Example 25, 1-[(4-Bromophenyl)methyl]-2-methyl-5-(2-quinolinylmethoxy)-1H-indole-3-acetic acid hemihydrate], the inhibition at 10000 µM was 93% in test [1] and -67% in test [2] (setting [5]). In test [3], the inhibition turned out to be 11%.

Take `Cc1c(CC(=O)O)c2cc(OCc3ccc4ccccc4n3)ccc2n1Cc1ccccc1` [Example 26, 1-[(Phenyl)methyl-2-methyl]-5-(2-quinolinylmethoxy)-1H-indole-3-acetic acid tenth hydrate]: the inhibition at 10000 µM in test [1] came to 85%. In test [2] (setting [5]), the inhibition at 10000 µM is -125%. For the same compound, in test [3], the IC50 amounted to 2.6 µM and the inhibition came to 92%.

With `CCCCCn1c(C)c(CC(=O)O)c2cc(OCc3ccc4ccccc4n3)ccc21` [Example 29, 2-Methyl-1-pentyl-5-(2-quinolinylmethoxy)-1H-indole-3-acetic acid hemihydrate], the inhibition at 10000 µM in test [1] is 88%. The inhibition at 10000 µM in test [2] (setting [5]) was -123%. In addition, in test [3], the IC50 came out at 15.5 µM and the inhibition was determined as 53%.

In the case of `CCCCCCn1c(C)c(CC(=O)O)c2cc(OCc3ccc4ccccc4n3)ccc21` [Example 30, 1-Hexyl-2-methyl-5-(2-quinolinylmethoxy)-1H-indole-3-acetic acid three quarters hydrate], the inhibition at 10000 µM in test [1] was found to be 90%. In addition, in test [2] (setting [5]), the inhibition at 10000 µM is -130%. In test [3], the IC50 worked out at 16.4 µM and the inhibition stood at 46%.

Consider `Cc1c(CC(N)=O)c2cc(OCc3nc4ccccc4s3)ccc2n1Cc1ccc(Cl)cc1` [Example 45, 5-(2-Benzothiazolylmethoxy)-1-[(4-chlorophenyl)methyl]-2-methyl-1H-indole-3-acetamide], for which the inhibition worked out at 33% at human platelet PLA2 and 23% in test [3].

With `CC(C(=O)O)c1ccc2c(c1)[nH]c1ccc(Cl)cc12` (centres unmarked) [carprofen, reference compound], the inhibition at 10000 µM in test [1] was -10%; in test [2] (setting [5]), 83%.

On to `CC1=C(CC(=O)O)c2cc(F)ccc2/C1=C\c1ccc([S+](C)[O-])cc1` (centres unmarked) [sulindac, reference compound], for which the inhibition at 10000 µM in test [1] was -10%; in test [2] (setting [5]), 23%.

Source of the values: patent publication US5420289A, “Substituted indole-, indene-, pyranoindole- and tetrahydrocarbazole-alkanoic acid derivatives as inhibitors of PLA2 and lipoxygenase” (American Home Products Corporation, priority 1993, dated 1995).
